This note sets out measurements from US7560458B2, “Triazolopyrimidine derivatives as glycogen synthase kinase 3 inhibitors” (Janssen Pharmaceutica, N.V., priority 2003, dated 2009).

In one experiment the target is GSK3alpha (Homo sapiens, UniProt P49840). Put plainly: GSK3alpha assay (same as the GSK3beta assay, GSK3alpha 0.25 ng/μl). The format is biochemical. The following applies: −log IC50 (M); given as ranges (>8; 7-8; <7); read-out: pIC50 (GSK3alpha) (converted). How it is done: (§1) GSK3beta assays were performed at room temperature in a 100 μl reaction volume of 25 mM Tris (ph 7.4) containing 10 mM MgCl2.6H2O 1 mM DTT, 0.1 mg/ml BSA, 5% glyceol and containing 5.7 ng/μl GSK3β, 5 μM biotinylated phosphorylated CREB peptide, 1 μM APT, 0.85 μCi/ml ATP-P^33 and a suitable amount of a test compound of formula (I). After one hour, the reaction was terminated by adding 70 μl of Stop mix (0.1 mM APT, 5 mg/ml streptavidin coated PVT SPA bead pH 11.0). The beads to which the phosphorylated CREB peptide is attached were allowed to settle overnight and the radioactivity of the beads was counted in a microtiterplate scintillation counter and compared with the results obtained in a control experiment (without the presence of a test compound) in order to determine the percentage of GSK3β inhibition. The IC50 value, i.e. the concentration (M) of the test compound at which 50% of GSK3β is inhibited, was calculated from the dose response curve obtained by performing the above-described GSKK3β assay in the presence of different amounts of the test compound.
The GSK3alpha assay was performed in the same way as described above for the GSK3beta assay except for the concentration of GSK3alpha which is 0.25 ng/μl.

The target in another experiment is GSK3β (Homo sapiens, UniProt P49841). Put plainly: GSK3beta assay (SPA, biotinylated phosphorylated CREB peptide, ATP-P33). The format is biochemical. The following applies: −log IC50 (M); given as ranges (>8; 7-8; <7); read-out: pIC50 (GSK3beta) (converted). How it is done: as §1
GSK3β, sequence (P49841 whole entry, species assumed): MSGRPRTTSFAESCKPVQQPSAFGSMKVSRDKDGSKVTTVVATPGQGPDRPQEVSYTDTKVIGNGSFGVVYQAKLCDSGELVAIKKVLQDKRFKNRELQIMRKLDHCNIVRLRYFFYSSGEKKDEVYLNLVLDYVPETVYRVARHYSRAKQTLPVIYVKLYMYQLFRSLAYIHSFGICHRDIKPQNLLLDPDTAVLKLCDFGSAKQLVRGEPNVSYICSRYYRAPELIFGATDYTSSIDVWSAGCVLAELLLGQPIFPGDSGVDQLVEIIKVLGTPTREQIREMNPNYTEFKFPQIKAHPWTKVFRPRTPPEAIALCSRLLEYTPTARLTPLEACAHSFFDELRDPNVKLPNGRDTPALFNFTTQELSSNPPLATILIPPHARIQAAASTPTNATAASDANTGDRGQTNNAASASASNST

GSK3alpha, sequence (P49840 whole entry, species assumed): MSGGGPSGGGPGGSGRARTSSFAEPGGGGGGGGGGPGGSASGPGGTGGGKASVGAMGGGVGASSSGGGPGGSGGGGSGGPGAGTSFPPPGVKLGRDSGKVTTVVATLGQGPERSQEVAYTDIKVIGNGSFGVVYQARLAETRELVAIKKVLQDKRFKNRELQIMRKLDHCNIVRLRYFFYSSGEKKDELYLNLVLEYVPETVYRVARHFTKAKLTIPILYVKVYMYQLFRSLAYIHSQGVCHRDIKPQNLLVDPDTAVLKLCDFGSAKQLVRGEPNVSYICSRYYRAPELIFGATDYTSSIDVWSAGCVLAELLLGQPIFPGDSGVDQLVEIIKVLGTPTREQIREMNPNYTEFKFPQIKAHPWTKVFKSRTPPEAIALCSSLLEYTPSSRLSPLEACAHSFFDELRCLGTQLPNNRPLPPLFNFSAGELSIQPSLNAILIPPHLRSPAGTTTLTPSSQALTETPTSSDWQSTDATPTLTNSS

As for `O=S(=O)(NCCO)c1cccc(Nc2ncc3nnn(-c4cccc(F)c4)c3n2)c1` [Compound 88], the IC50 on GSK3alpha and on GSK3β was less than 1e-08 M throughout.
Regarding `COCc1cccc(-n2nnc3cnc(Nc4cccc(NS(C)(=O)=O)c4)nc32)c1` [Compound 84], the IC50 at GSK3alpha and at GSK3β was less than 1e-08 M throughout.
Turning to `COCc1cccc(-n2nnc3cnc(Nc4cccc(CO)c4)nc32)c1` [Compound 144], the IC50 on GSK3alpha and on GSK3β was less than 1e-08 M in each case.
Consider `COc1cccc(-n2nnc3cnc(Nc4cccc(C(C)=O)c4)nc32)c1` [Compound 51], for which the IC50 at GSK3alpha and at GSK3β was less than 1e-08 M each time.
For the compound `NC(=O)CNC(=O)c1cccc(Nc2ncc3nnn(-c4cccc(CC(=O)O)c4)c3n2)c1` [Compound 176], the IC50 on GSK3alpha and on GSK3β was 1e-08 to 1e-07 M in each case.
On to `CC(C)CC(=O)NCc1cccc(-n2nnc3cnc(Nc4ccc(CC(=O)O)cc4)nc32)c1` [Compound 194], for which the IC50 was less than 1e-08 M at GSK3alpha and 1e-08 to 1e-07 M at GSK3β.
For `O=C(NCc1cccc(-n2nnc3cnc(Nc4ccc(CCO)cc4)nc32)c1)C1CC1` [Compound 208], in that order: less than 1e-08 M and less than 1e-08 M.
As to `CC(=O)NCc1cccc(-n2nnc3cnc(Nc4cccc(CO)c4)nc32)c1` [Compound 110], the IC50 at GSK3alpha and at GSK3β was less than 1e-08 M throughout.
Consider `O=C(O)c1ccc(Nc2ncc3nnn(-c4cccc(CNC(=O)C56CC7CC(CC(C7)C5)C6)c4)c3n2)cc1` [Compound 239], for which the IC50 on GSK3alpha is 1e-08 M; at GSK3β, 1e-08 to 1e-07 M.
On the same counts, the results for `COCC(=O)NCc1cccc(-n2nnc3cnc(Nc4ccc(C(=O)O)cc4)nc32)c1` [Compound 155] are less than 1e-08 M and 1e-08 to 1e-07 M.
For `COCCOc1cccc(-n2nnc3cnc(Nc4ccc(CNC(=O)OC(C)(C)C)cc4)nc32)c1` [Compound 302], in that order: less than 1e-08 M and 1e-08 to 1e-07 M.
On the same counts, the results for `N#Cc1cccc(Nc2ncc3nnn(-c4ccccc4)c3n2)c1` [Compound 34] are less than 1e-08 M and less than 1e-08 M.
For the compound `Cn1ccnc1-c1cccc(-n2nnc3cnc(Nc4cccc(C#N)c4)nc32)c1` [Compound 4], the IC50 at GSK3alpha is 1e-08 to 1e-07 M; at GSK3β, less than 1e-08 M.
On the same counts, the results for `COCc1cccc(-n2nnc3cnc(Nc4cccc(CCO)c4)nc32)c1` [Compound 151] are less than 1e-08 M and less than 1e-08 M.
Turning to `NS(=O)(=O)c1ccc(Nc2ncc3nnn(-c4cccc(CNC(=O)C56CC7CC(CC(C7)C5)C6)c4)c3n2)cc1` [Compound 243], the IC50 at GSK3alpha and at GSK3β was 1e-08 to 1e-07 M in each case.
Take `CC(=O)NCc1cccc(Nc2ncc3nnn(-c4ccccc4)c3n2)c1` [Compound 75]: the IC50 on GSK3alpha was less than 1e-08 M; on GSK3β it was 1e-08 to 1e-07 M.
As to `COCc1cccc(Nc2ncc3nnn(-c4cccc(COC)c4)c3n2)c1` [Compound 132], the IC50 on GSK3alpha and at GSK3β was less than 1e-08 M throughout.
As to `CC(=O)Nc1cccc(Nc2ncc3nnn(-c4cccc(S(N)(=O)=O)c4)c3n2)c1` [Compound 63], the IC50 at GSK3alpha and on GSK3β was less than 1e-08 M each time.
For `CC(=O)NCc1cccc(-n2nnc3cnc(Nc4cccc(C(C)=O)c4)nc32)c1` [Compound 111], the IC50 at GSK3alpha and on GSK3β was less than 1e-08 M throughout.
Regarding `N#CCc1cccc(-n2nnc3cnc(Nc4ccc(CNCC(F)(F)F)cc4)nc32)c1` [Compound 311], the IC50 on GSK3alpha and at GSK3β was less than 1e-08 M throughout.
For `CC(=O)NCc1cccc(-n2nnc3cnc(Nc4cccc(S(=O)(=O)NCCO)c4)nc32)c1` [Compound 131], the IC50 at GSK3alpha and at GSK3β was 1e-08 to 1e-07 M in each case.
On to `O=C(O)c1ccc(Nc2ncc3nnn(-c4cccc(CCO)c4)c3n2)cc1` [Compound 257], for which the IC50 on GSK3alpha and at GSK3β was less than 1e-08 M each time.
For the compound `COCc1cccc(-n2nnc3cnc(Nc4ccc(C(=O)O)c(Cl)c4)nc32)c1` [Compound 138], the IC50 on GSK3alpha and on GSK3β was less than 1e-08 M in each case.
